{"source": "paper PMC3526234", "about": "(Diabetes Care, 2012)", "origin": "cited, not measured here", "test_system": "patients with diabetic gastroparesis", "conditions": "intravenous erythromycin, 10 patients with diabetic gastroparesis", "data": [{"smiles": "CC[C@H]1OC(=O)[C@H](C)[C@@H](O[C@H]2C[C@@](C)(OC)[C@@H](O)[C@H](C)O2)[C@H](C)[C@@H](O[C@@H]2O[C@H](C)C[C@H](N(C)C)[C@H]2O)[C@](C)(O)C[C@@H](C)C(=O)[C@H](C)[C@@H](O)[C@]1(C)O", "note": "[erythromycin]", "values": [{"measurement": "estimated effect relative to placebo on percent retained at 60 min", "result": 75, "unit": "%"}]}]}
